Values joined by “and” are separate entries in the source; they are usually repeats but may differ in a detail not shown here. Identical values can stand only once.

The assay has as its target 5-hydroxytryptamine receptor 6 (Homo sapiens, UniProt P50406). The experiment in a line: Radioligand Binding Assay. The source says:
Radioligand binding assay using 5-HT6R.

5-hydroxytryptamine receptor 6, sequence (P50406 whole entry): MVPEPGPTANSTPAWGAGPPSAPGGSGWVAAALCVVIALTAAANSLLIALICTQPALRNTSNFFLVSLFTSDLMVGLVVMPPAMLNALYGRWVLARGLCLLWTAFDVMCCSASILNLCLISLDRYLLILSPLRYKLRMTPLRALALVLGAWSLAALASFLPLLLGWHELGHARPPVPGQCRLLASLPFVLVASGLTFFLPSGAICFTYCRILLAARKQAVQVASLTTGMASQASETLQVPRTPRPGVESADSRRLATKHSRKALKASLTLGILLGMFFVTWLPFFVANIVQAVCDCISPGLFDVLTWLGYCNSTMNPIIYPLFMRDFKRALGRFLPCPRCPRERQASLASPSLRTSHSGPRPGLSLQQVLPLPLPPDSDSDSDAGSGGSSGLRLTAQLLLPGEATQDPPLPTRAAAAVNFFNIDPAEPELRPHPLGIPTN

By IC50 is commonly meant the midpoint of a concentration-inhibition curve. Turning to `CNc1nc2c(S(=O)(=O)c3ccccc3)nnn2c2ccccc12` [PSTQ Analog, 3{1,2}], the IC50 is more than 0.3 µM.

Broadly, the Ki is the equilibrium dissociation constant of an inhibitor or competing ligand from its target. Lower therefore signals tighter binding. Regarding `CC(C)Nc1nc2c(S(=O)(=O)c3ccccc3)nnn2c2ccccc12` [PSTQ Analog, 3{1,3}], the IC50 worked out at 0.107 µM and the Ki was determined as 0.0495 µM.

`CCC(C)Nc1nc2c(S(=O)(=O)c3ccccc3)nnn2c2ccccc12` (stereo not drawn) [PSTQ Analog, 3{1,4}] came in with a 50% inhibitory concentration (IC50) of 0.0152 µM and a Ki of 0.00704 µM.

In the case of `O=S(=O)(c1ccccc1)c1nnn2c1nc(NCc1ccccc1)c1ccccc12` [PSTQ Analog, 3{1,12}], the IC50 came out at 0.381 µM.

`O=S(=O)(c1ccccc1)c1nnn2c1nc(NCc1ccccc1Cl)c1ccccc12` [PSTQ Analog, 3{1,13}] had an IC50 of 0.128 µM.

For the compound `O=S(=O)(c1ccccc1)c1nnn2c1nc(NCC1CCCO1)c1ccccc12` (stereo not drawn) [PSTQ Analog, 3{1,21}], the IC50 was 0.0754 µM and 0.0284 µM; the affinity corresponds to a Ki of 0.0132 µM.

`O=S(=O)(c1ccccc1)c1nnn2c1nc(NCc1ccco1)c1ccccc12` [PSTQ Analog, 3{1,22}] yielded a Ki of 0.00354 µM. That is a single-digit nanomolar value.

In the case of `O=S(=O)(c1ccccc1)c1nnn2c1nc(NCc1cccnc1)c1ccccc12` [PSTQ Analog, 3{1,23}], the IC50 came to 0.983 µM.

Turning to `O=S(=O)(c1ccccc1)c1nnn2c1nc(NC1CCCC1)c1ccccc12` [PSTQ Analog, 3{1,25}], the affinity, expressed as Ki, was 0.0129 µM. This counts as double-digit nanomolar.

In turn, `O=S(=O)(c1ccccc1)c1nnn2c1nc(NC1CCCCC1)c1ccccc12` [PSTQ Analog, 3{1,26}] yielded an IC50 of 0.0108 µM and a Ki of 0.00501 µM.

With `CC1CCCCC1Nc1nc2c(S(=O)(=O)c3ccccc3)nnn2c2ccccc12` (stereo not drawn) [PSTQ Analog, 3{1,27}], the IC50 stood at 0.00617 µM and the inhibitory constant (Ki) is 0.00286 µM.

Regarding `CC1CCC(Nc2nc3c(S(=O)(=O)c4ccccc4)nnn3c3ccccc23)CC1` (stereo not drawn) [PSTQ Analog, 3{1,28}], the IC50 came to 0.0595 µM and the affinity, expressed as Ki, was 0.0276 µM.

Take `CN(C)c1nc2c(S(=O)(=O)c3ccccc3)nnn2c2ccccc12` [PSTQ Analog, 3{1,40}]: the IC50 is more than 0.03 µM.

Compound `CN(C)CCN(C)c1nc2c(S(=O)(=O)c3ccccc3)nnn2c2ccccc12` [PSTQ Analog, 3{1,42}] showed an IC50 of more than 0.03 µM.

In turn, `CN(Cc1ccccc1)c1nc2c(S(=O)(=O)c3ccccc3)nnn2c2ccccc12` [PSTQ Analog, 3{1,43}] registered a Ki of 0.00765 µM.

On to `CCN(Cc1ccccc1)c1nc2c(S(=O)(=O)c3ccccc3)nnn2c2ccccc12` [PSTQ Analog, 3{1,44}], for which the IC50 is 0.164 µM.

Compound `CC1CCCCN1c1nc2c(S(=O)(=O)c3ccccc3)nnn2c2ccccc12` (stereo not drawn) [PSTQ Analog, 3{1,49}] returned an IC50 of 0.0421 µM and a Ki of 0.0195 µM.

Take `Cc1ccc(S(=O)(=O)c2nnn3c2nc(NCC(C)c2ccccc2)c2ccccc23)cc1` (stereo not drawn) [PSTQ Analog, 3{2,10}]: the IC50 turned out to be 0.606 µM.

With `Cc1ccc(S(=O)(=O)c2nnn3c2nc(NCc2ccccc2)c2ccccc23)cc1` [PSTQ Analog, 3{2,12}], the IC50 was determined as 0.32 µM.

In turn, `Cc1ccc(S(=O)(=O)c2nnn3c2nc(NCc2ccccc2Cl)c2ccccc23)cc1` [PSTQ Analog, 3{2,13}] gave a half-inhibitory concentration (IC50) of 0.528 µM. Against the preceding compound, the IC50 is about 1.7-fold higher.

Consider `Cc1ccc(S(=O)(=O)c2nnn3c2nc(NC(C)c2ccccc2)c2ccccc23)cc1` (stereo not drawn) [PSTQ Analog, 3{2,20}], for which the IC50 is 0.74 µM.

Consider `Cc1ccc(S(=O)(=O)c2nnn3c2nc(NCC2CCCO2)c2ccccc23)cc1` (stereo not drawn) [PSTQ Analog, 3{2,21}], for which the IC50 came out at 1.48 µM.

For `CCc1ccc(S(=O)(=O)c2nnn3c2nc(NC2CCCCC2C)c2ccccc23)cc1` (stereo not drawn) [PSTQ Analog, 3{3,27}], the IC50 came out at 0.572 µM. Compared with the last compound, the IC50 is about 2.6-fold lower.

For `CC(Nc1nc2c(S(=O)(=O)c3ccc(Cl)cc3)nnn2c2ccccc12)c1ccccc1` (stereo not drawn) [PSTQ Analog, 3{6,20}], the IC50 is 0.628 µM.

`CCc1ccccc1Nc1nc2c(S(=O)(=O)c3ccc(Br)cc3)nnn2c2ccccc12` [PSTQ Analog, 3{7,31}]: the IC50 is 1.43 µM.

`Cc1cccc(Nc2nc3c(S(=O)(=O)c4ccc(Br)cc4)nnn3c3ccccc23)c1C` [PSTQ Analog, 3{7,37}]: the IC50 was 0.704 µM. This IC50 lies about 2-fold lower than the previous one.

`CCC(C)Nc1nc2c(S(=O)(=O)c3cc(C)ccc3C)nnn2c2ccccc12` (stereo not drawn) [PSTQ Analog, 3{8,4}] gave a concentration for half-maximal inhibition (IC50) of 0.0359 µM and a Ki of 0.0167 µM.

`CCc1ccccc1Nc1nc2c(S(=O)(=O)c3cc(C)ccc3C)nnn2c2ccccc12` [PSTQ Analog, 3{8,31}] displayed an IC50 of 0.77 µM.

In turn, `Cc1ccc(S(=O)(=O)c2nnn3c2nc(NCCc2ccccc2)c2ccccc23)cc1C` [PSTQ Analog, 3{9,9}] had a half-inhibitory concentration (IC50) of 2.01 µM.

Compound `Cc1ccc(S(=O)(=O)c2nnn3c2nc(NCc2ccccc2C)c2ccccc23)cc1C` [PSTQ Analog, 3{9,13}] had an IC50 of 0.602 µM.

In the case of `Cc1ccc(S(=O)(=O)c2nnn3c2nc(NC(C)c2ccccc2)c2ccccc23)cc1C` (stereo not drawn) [PSTQ Analog, 3{9,20}], the half-inhibitory concentration (IC50) is 0.356 µM.

The compound `Cc1ccc(S(=O)(=O)c2nnn3c2nc(NCC2CCCO2)c2ccccc23)cc1C` (stereo not drawn) [PSTQ Analog, 3{9,21}] came in with an IC50 of 0.779 µM.

Compound `CCc1ccccc1Nc1nc2c(S(=O)(=O)c3ccc(C)c(C)c3)nnn2c2ccccc12` [PSTQ Analog, 3{9,31}] returned an IC50 of 0.295 µM.

In the case of `CCN(Cc1ccccc1)c1nc2c(S(=O)(=O)c3ccc(C)c(C)c3)nnn2c2ccccc12` [PSTQ Analog, 3{9,44}], the IC50 came to 0.971 µM.

With `Cc1ccc(S(=O)(=O)c2nnn3c2nc(N2CCCCCC2)c2ccccc23)cc1C` [PSTQ Analog, 3{9,53}], the IC50 was determined as 1.31 µM.

As to `Cc1ccc(S(=O)(=O)c2nnn3c2nc(N2CCN(c4ccccn4)CC2)c2ccccc23)cc1C` [PSTQ Analog, 3{9,58}], the IC50 stood at 1.2 µM. This IC50 and that of the compound before are within 1.5-fold of each other.

With `Cc1cc(C)c(S(=O)(=O)c2nnn3c2nc(NC(C)C)c2ccccc23)c(C)c1` [PSTQ Analog, 3{10,3}], the IC50 amounted to 2.18 µM.

As for `CCC(C)Nc1nc2c(S(=O)(=O)c3c(C)cc(C)cc3C)nnn2c2ccccc12` (stereo not drawn) [PSTQ Analog, 3{10,4}], the IC50 is 0.964 µM.

`Cc1cc(C)c(S(=O)(=O)c2nnn3c2nc(NCC2CCCO2)c2ccccc23)c(C)c1` (stereo not drawn) [PSTQ Analog, 3{10,21}] came in with a half-maximal inhibitory concentration (IC50) of 1.46 µM.

The compound `Cc1cccc(Nc2nc3c(S(=O)(=O)c4c(C)cc(C)cc4C)nnn3c3ccccc23)c1` [PSTQ Analog, 3{10,32}] returned an IC50 of 1 µM. The IC50 values of the last two compounds are within 1.5-fold of each other.

On to `COc1cccc(Nc2nc3c(S(=O)(=O)c4c(C)cc(C)cc4C)nnn3c3ccccc23)c1` [PSTQ Analog, 3{10,33}], for which the IC50 turned out to be 0.67 µM.

Take `O=S(=O)(c1ccccc1)c1nnn2c1nc(NCC1CCCO1)c1cc(Cl)ccc12` (stereo not drawn) [PSTQ Analog, 3{12,21}]: the IC50 came to 1.8 µM.

In turn, `O=S(=O)(c1ccccc1)c1nnn2c1ncc1ccccc12` [PSTQ Analog, 8] showed an IC50 of 5.74 µM.

As for `CCSc1nc2c(S(=O)(=O)c3ccccc3)nnn2c2ccccc12` [PSTQ Analog, 9], the IC50 came to 1.05 µM. This IC50 lies about 5.5-fold lower than the previous one.

In turn, `COCCOc1nc2c(S(=O)(=O)c3ccccc3)nnn2c2ccccc12` [PSTQ Analog, 10] gave an IC50 of 1.37 µM.
